In paper PMC3479139, “Diverse Small Molecule Inhibitors of Human Apurinic/Apyrimidinic Endonuclease APE1 Identified from a Screen of a Large Public Collection” (PLoS ONE, 2012):
pIC50: −log10 of the molar value.

Tests used:
[1] = tested on: HeLa cells; experiment: AP site measurement in genomic DNA; type: cell-based, human; details: 24 h
Description: HeLa cells at 80% confluency (6×10^5 cells) were subjected to the following treatments in a 6-well plate for 24 hours at 37°C: 1) DMSO alone, 2) 275 µM MMS, 3) APE1 inhibitors dissolved in DMSO (5–20 µM final compound concentration), and 4) the inhibitors as in treatment 3 in combination with 275 µM MMS. Cells were then harvested and processed using a Qiagen Genomic DNA isolation kit (Germantown, MD). After DNA quantitation, AP sites were measured using the DNA Damage Quantification kit from Dojindo Molecular Technologies (Rockville, MD).
As stated above, the application of the genotoxic agent MMS results in an increase in the level of AP sites within the genome. An effective APE1-targeted inhibitor applied under the conditions of increased genotoxic stress is expected to interfere with the repair of AP sites, while ideally having no effect on the AP site levels when applied as a single agent. Thus, the net effect of treating cells with a combination of MMS and inhibitor would be an increase in the number of AP site lesions. To determine the effect on AP site accumulation caused by treatment with MMS in combination with an APE1 inhibitor, as compared to treatment with MMS or inhibitor alone, we measured AP site levels in the chromosomal DNA from HeLa cells using an aldehyde-reactive probe-based colorimetric assay. The concentrations of MMS and inhibitor (275 µM for MMS and between […] for the inhibitor, respectively) were selected to fall below the onset of cytotoxicity for each agent based on the analysis of the MMS potentiation data shown in Figure 5.

[2] = tested on: tubulin; design: method as in PMID 20657644; details: cited from earlier work
[3] = molecular target: T1, APE1 (Homo sapiens, UniProt P27695); experiment: Fluorescence polarization (FP) displacement assay of APE1 binding to AP-DNA probe; details: read-out: FP IC50;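 further: TAMRA 5′-labeled duplex DNA with THF abasic site (5 nM) and APE1 (20 nM), Mg2+-free buffer, 15 min at room temperature, inhibition seen as lowered polarization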
T1 construct: made in house

[4] = molecular target: T1, APE1; experiment: Fluorogenic kinetic qHTS APE1 incision assay (primary screen and retest of cherrypicked samples); type: biochemical;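 further: purified APE1 cleaving a fluorophore/dark-quencher labelled 17-mer duplex DNA bearing a tetrahydrofuran AP site, fluorescence rise followed kinetically over the first 2 min, inhibition normalized to controls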
Description: All screening operations were performed on a fully integrated robotic system (Kalypsys, San Diego, CA) [28] with library plates screened proceeding from the lowest to the highest concentration to minimize compound carryover [26]. Vehicle-only plates, with DMSO being pin-transferred to the entire column 5–48 compound area, were included regularly throughout the screen in order to record any systematic shifts in assay signal. During the screen, reagent bottles were kept at 4°C and all liquid lines were covered with aluminum foil to minimize degradation.
Screening data were corrected and normalized, and concentration–effect relationships was derived using in-house developed algorithms [25].
To screen for inhibitors of APE1 incision activity, we employed a purified-enzyme biochemical assay with a model substrate featuring a red-shifted fluorescent reporter in combination with a dark non-emitting quencher. These moieties were incorporated as end labels onto a 17-mer double-stranded DNA fragment containing a centrally-located tetrahydrofuran AP site sugar mimetic, which serves as the APE1 cleavage site. Upon APE1-catalyzed strand scission immediately 5′ to the AP site analog, the shortened oligodeoxynucleotide carrying the fluorescent reporter spontaneously dissociates from the rest of the substrate, leading to an increase in fluorescence due to its spatial separation from the dark quencher (Figure 1A).
Using a high-speed whole-plate fluorescence imager, the assay data for the entire screen was conducted in kinetic mode, with the APE1 incision reaction being monitored over the initial linear time frame of 2 min (Figure 1B). Thus, any inhibition associated with each sample was computed from the alteration in fluorescence intensity over the time-course measurement period, after normalization against the appropriate controls (Figure 1B, inset).

[5] = molecular target: T1, APE1; experiment: Gel-based radiotracer (32P) APE1 incision assay; type: biochemical; design: concentration or dose not given beside the values; details: percent incision shown; entries 1-112;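 further: APE1 incision reactions ran 5 min at 37 °C, with cleaved product and intact substrate resolved electrophoretically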
[6] = tested on: HeLa cells; experiment: MMS potentiation assay (CellTiter Glo viability); type: cell-based, human; design: key: N.A., no activity observed; P, positive; I, inconclusive; N.T., not tested; details: potentiation of the genotoxic effect of methylmethane sulfonate
Description: HeLa cells were plated at 6000 cells/well in DMEM culture medium containing 10% FBS into white solid bottom 384-well cell culture plates. The plates were incubated at 37°C overnight for cell attachment, followed by media replacement. The fresh medium contained serial dilutions of compounds of interest in the presence (0.4 mM final) or absence of MMS. The plates were incubated for 24 h at 37°C. Cell viability was determined by luminescence detection after an addition of 15 µL of CellTiter Glo reagent (Promega, Madison, WI). Percent viability was calculated for each concentration of compound tested in duplicate by relating the corresponding luminescence to that of a negative DMSO vehicle control. MMS potentiation trends were defined as follows: negative (-), if cell viability in the compound-plus-MMS treatment was the same as that of the DMSO-plus-MMS control (overlapping dose-response curves); inconclusive (I), if the shift in the cell viability dose-response upon MMS inclusion relative to compound-alone was less than 30%; and positive (P), if the difference between the compound-plus-MMS and compound-alone curves was at least 30%, and maintained within at least a two-fold compound concentration span.
To examine the biological prospects of the top compounds, we tested their ability to inhibit APE1 DNA repair activity by assessing enhancement of MMS toxicity in mammalian cells. MMS creates methylated-base damage to genomic DNA, which, when excised by an alkylpurine DNA glycosylase, results in a high number of cytotoxic AP sites. We compared the viability of HeLa cells exposed to a dilution series of inhibitor alone to a combination of a fixed MMS concentration with the same dilution series of inhibitor by using a standard CellTiter Glo luminescence assay. This technique measures the number of viable cells in culture based on quantitation of the ATP present, which signals the presence of metabolically active cells. The assay was further optimized for 384-well plates, allowing a high-throughput testing of multiple hits at multiple concentrations, a scope of investigation previously impossible due to the very low throughput of the traditionally applied colony formation assay.
From the 223 compounds found positive in the gel-based APE1 assays, exclusion of the most promiscuous hits, that is, those that were both DNA binders and EndoIV-inhibitory, yielded a set of 170 compounds (Figure 3). This shortened group of hits was tested in the cell-based potentiation assay for their ability to dose-dependently enhance sensitivity of HeLa cells to the alkylating agent MMS.

[7] = molecular target: double-stranded 17-mer DNA fragment; experiment: ThO (Thiazole Orange) DNA displacement assay; type: binding; details: read-out: ThO-DNA binding IC50;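 further: miniaturized displacement of the intercalating dye from unlabeled duplex DNA, used to flag nonspecific DNA binders, chiefly intercalators, groove binders may be missed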
[8] = molecular target: T2, E. coli Endo IV (Escherichia coli, UniProt P0A6C1); experiment: E. coli Endo IV profiling counterscreen; type: biochemical; details: read-out: EndoIV IC50;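 further: selectivity counterscreen of candidate APE1 inhibitors against the bacterial endonuclease Endo IV, run in the same assay format as the primary APE1 high-throughput screen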
T2 construct: made in house
Description: In order to screen out nonselective compounds, such as non-specific DNA binders and inhibitors of related enzymes, we used a miniaturized ThO DNA displacement assay and a counterscreen against the bacterial endonuclease E. coli Endo IV, respectively, following the previously published protocols [21].
To probe the selectivity of the candidate APE1 inhibitors, we tested them against E. coli EndoIV [36], employing the same assay as used in the HTS.

[9] = molecular target: T1, APE1; experiment: Gel-based APE1 incision assay with fluorescence (TAMRA) detection; type: biochemical; details: estimated IC50, fluorophore detection; entries 113-223; read-out: F-PAGE Assay IC50
[10] = tested on: histone acetyltransferase (HAT) p300; design: method as in PMID 20534345, PMID 21764752; details: cited from earlier work
[11] = initial quantitative high-throughput screen, read-out: APE1 qHTS IC50
[12] = retest of cherrypicked sample, read-out: APE1 Retest IC50

T1 sequence (P27695 whole entry): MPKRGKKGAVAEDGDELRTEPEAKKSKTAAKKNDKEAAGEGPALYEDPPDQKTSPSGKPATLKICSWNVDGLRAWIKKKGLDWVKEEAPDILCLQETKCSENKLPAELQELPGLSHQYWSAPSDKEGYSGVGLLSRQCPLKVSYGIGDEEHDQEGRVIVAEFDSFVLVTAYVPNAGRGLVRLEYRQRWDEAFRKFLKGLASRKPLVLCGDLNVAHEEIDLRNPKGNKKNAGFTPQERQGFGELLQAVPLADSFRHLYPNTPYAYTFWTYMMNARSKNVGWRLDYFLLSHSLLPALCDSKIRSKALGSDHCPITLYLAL

Row | SMILES | AP site levels, combination treatment versus MMS-alone ([1]; 275 µM MMS plus inhibitor, initial test (Figure 8)) | Inhibition of tubulin assembly [2] | pIC50 [3] | pIC50 ([4]; initial qHTS, 7-point titration, read-out: qHTS, IC50 obtained in the initial quantitative high-throughput screen) | pIC50 [4, 11] | pIC50 [4, 12] | Radiotracer Assay (%Activity) [5] [%] | MMS Assay [6] | pIC50 [7] | pIC50 [8] | pIC50 [9] | AP sites upon treatment with the inhibitor alone ([1]; inhibitor alone vs vehicle) | Inhibition of HAT p300 [10]
1 | Cc1c(C(=O)OCC2CCCO2)[nH]c2c1C(=O)CC(c1ccco1)C2 (stereo not shown) [MLS000090966] | obscured by large standard deviations | effective inhibitor | 4.80 | 5.15 | 5.15 | 5.35 | 37 | P | < 4.24 | < 4.24 |  |  | 
2 | CCOC(=O)c1cc(-c2ccc(/C=C3/C(=O)N(c4ccc(C(=O)O)cc4)N=C3C)o2)ccc1Cl [MLS001196838] |  |  | < 4.24 |  | 5.08 | 4.59 |  | P | 4.79 | < 4.24 | 5.10 | noticeable increase in AP sites | potent and selective inhibitor
